Measurements from patent US12521377B2, “Uses of (+)-B-dihydrotetrabenazine in methods of treating movement disorder” (ADEPTIO PHARMACEUTICALS LIMITED, priority 2017, dated 2026).
“Also recorded” adds a separate entry of the source.

How the values were obtained:
[1] = Pharmacokinetic study, single-dose oral administration of tetrabenazine 25 mg to healthy adult male volunteers: plasma levels of tetrabenazine and DHTBZ isomers; format: in vivo, human; conditions: for status as metabolite of tetrabenazine in humans: single and multiple dose tetrabenazine 25 mg, Tables 1 and 2; for Kel: N=08, unit not given
Experimental: (§1) A pharmacokinetic study was carried out in healthy adult male volunteers under fasting conditions at a dose of single and multiple oral administration of 25 mg tablets once a day to ascertain the plasma levels of +/−α and +/−β dihydro-tetrabenazine.
Table 1 summarises the pharmacokinetic data obtained following single-dose oral administration of tetrabenazine at a dose level of 25 mg (fasting, N=08).

[2] = Pharmacokinetic study, multiple-dose oral administration of tetrabenazine 25 mg once a day to healthy adult male volunteers: plasma levels; format: in vivo; conditions: multiple-dose oral tetrabenazine 25 mg once a day, fasting, N=07, human plasma
Experimental: as §1
Table 2 summarises the pharmacokinetic data obtained following multiple-dose oral administration of tetrabenazine at a dose level of 25 mg (fasting, N=07).

[3] = rat brain, stereochemistry not disclosed; cited from earlier work
[4] = system: male CD rats; experiment: Amphetamine induced locomotor activity and stereotypies in the open field arena; format: in vivo, rat; conditions: amphetamine at t=30 min; for normalised total distance travelled, compared to vehicle-amphetamine group / normalised total stereotypic behaviour, compared to vehicle-amphetamine group: listed as (+)-β-DHTBZ
Experimental: Resulting locomotor activity was evaluated in 3 min bins and as a total over the testing period. […] Resulting stereotypic activity was evaluated in 3 min bins and as a total over the testing period.

[5] = biological target: Chromaffin Granule Monoamine Transporter (Bos taurus, UniProt Q27963); conditions: cited from earlier work
[6] = single-dose oral tetrabenazine 25 mg, fasting, N=08, human plasma
[7] = single-dose oral tetrabenazine 25 mg, fasting

Sequence of Chromaffin Granule Monoamine Transporter (Q27963 whole entry): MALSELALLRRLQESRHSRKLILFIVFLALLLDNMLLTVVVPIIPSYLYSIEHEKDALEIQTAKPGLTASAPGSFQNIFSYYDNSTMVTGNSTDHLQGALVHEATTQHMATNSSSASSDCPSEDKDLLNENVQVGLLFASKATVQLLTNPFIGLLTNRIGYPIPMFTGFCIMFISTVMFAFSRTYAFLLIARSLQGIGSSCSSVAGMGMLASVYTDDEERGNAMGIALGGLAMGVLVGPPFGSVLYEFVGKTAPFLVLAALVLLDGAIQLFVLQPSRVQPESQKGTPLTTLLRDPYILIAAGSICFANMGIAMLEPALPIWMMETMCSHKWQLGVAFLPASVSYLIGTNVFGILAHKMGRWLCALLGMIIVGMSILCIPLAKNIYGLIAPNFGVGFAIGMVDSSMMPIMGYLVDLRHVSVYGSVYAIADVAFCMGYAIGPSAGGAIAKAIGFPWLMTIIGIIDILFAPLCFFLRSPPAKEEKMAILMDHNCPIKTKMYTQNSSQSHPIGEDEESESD

COc1cc2c(cc1OC)[C@@H]1C[C@@H](O)[C@@H](CC(C)C)CN1CC2 [(−)-β-dihydrotetrabenazine]
status as metabolite of tetrabenazine in humans [1]: minor metabolites | Cmax ([1]; single dose study, tetrabenazine administered to adult male humans): 5.28 ng/mL | area under the curve (AUC) ([1]; single dose study, tetrabenazine administered to adult male humans (unit not given)): 16.28 | AUC(0-inf.) [1, 6]: 18.77 ng·h/mL | AUC(0-t) [1, 6]: 16.28 ng·h/mL | Cmax [1, 6]: 5.28 ng/mL | Extrapolated AUC [1, 6]: 17.66% | Half-life (Mean) [1, 6]: 12.98 h | Tmax Mean [1, 6]: 1.03 h | Kel [1, 7]: 0.45 | AUC(0-t) [2]: 25.17 ng·h/mL | Cmaxss [2]: 7.78 ng/mL | Cminss [2]: 0.16 ng/mL | Ctss [2]: 0.57 ng/mL | Tmaxss Mean [2]: 97.11 h

COc1cc2c(cc1OC)C1CC(O)C(CC(C)C)CN1CC2 (stereo not shown) [dihydrotetrabenazine, 2-hydroxy-3-(2-methylpropyl)-1,3,4,6,7,11b-hexahydro-9,10-dimethoxy-benzo(a)quinolizine]
crossing of the blood-brain barrier [3]: able to cross the blood-brain barrier

COc1cc2c(cc1OC)[C@H]1C[C@H](O)[C@H](CC(C)C)CN1CC2 [(+)-β-dihydrotetrabenazine, (S,R,R)-3-isobutyl-9,10-dimethyloxy-1,3,4,5,7,11b-hexahydro-2H-pyrido[2,1-a]isoquinolin-2-ol]
status as metabolite of tetrabenazine in humans [1]: major metabolites; also recorded: main metabolites | Kel [1, 7]: 0.13 | normalised total stereotypic behaviour, compared to vehicle-vehicle group ([4]; 2.5 mg/kg at t=0 min): significantly different | normalised total distance travelled, compared to vehicle-amphetamine group ([4]; 2.5 mg/kg at t=0 min): lower locomotor activity | normalised total stereotypic behaviour, compared to vehicle-amphetamine group ([4]; 2.5 mg/kg at t=0 min): significantly different; also recorded: reduced stereotypic behaviour | normalised total stereotypic behaviour, compared to vehicle-vehicle group ([4]; 5 mg/kg at t=0 min): significantly different | normalised total distance travelled, compared to vehicle-amphetamine group ([4]; 5 mg/kg at t=0 min): lower locomotor activity | normalised total stereotypic behaviour, compared to vehicle-amphetamine group ([4]; 5 mg/kg at t=0 min): significantly different; also recorded: reduced stereotypic behaviour

COc1cc2c(cc1OC)C1CC(=O)C(CC(C)C)CN1CC2 (racemic) [Tetrabenazine, 1,3,4,6,7,11b-hexahydro-9,10-dimethoxy-3-(2-methylpropyl)-2H-benzo(a)quinolizin-2-one]
Kel [1, 7]: 0.19

α-dihydrotetrabenazine
higher affinity than the β-isomer ([5]; racemic α- versus racemic β-dihydrotetrabenazine, in vitro): 3- to 4 fold

COc1cc2c(cc1OC)[C@@H]1C[C@H](O)[C@@H](CC(C)C)CN1CC2 [(−)-α-dihydrotetrabenazine]
status as metabolite of tetrabenazine in humans [1]: major metabolites; also recorded: main metabolites | Kel [1, 7]: 0.10

COc1cc2c(cc1OC)[C@H]1C[C@@H](O)[C@H](CC(C)C)CN1CC2 [(+)-α-dihydrotetrabenazine]
status as metabolite of tetrabenazine in humans [1]: minor metabolites | Kel [1, 7]: 0.17 | more active than the (+)-β-isomer ([5]; earlier findings, as worded): 3- to 4 times
